Results reported in ChEMBL document CHEMBL1126425, “A partial pharmacophore for the platelet activating factor (PAF) receptor” (Bioorg Med Chem Lett, 1992).

target: Platelet-activating factor receptor (Homo sapiens, UniProt P25105); experiment: Antagonistic activity for inhibition of [3H]PAF receptor binding to washed human platelet membranes.
Sequence (P25105 whole entry): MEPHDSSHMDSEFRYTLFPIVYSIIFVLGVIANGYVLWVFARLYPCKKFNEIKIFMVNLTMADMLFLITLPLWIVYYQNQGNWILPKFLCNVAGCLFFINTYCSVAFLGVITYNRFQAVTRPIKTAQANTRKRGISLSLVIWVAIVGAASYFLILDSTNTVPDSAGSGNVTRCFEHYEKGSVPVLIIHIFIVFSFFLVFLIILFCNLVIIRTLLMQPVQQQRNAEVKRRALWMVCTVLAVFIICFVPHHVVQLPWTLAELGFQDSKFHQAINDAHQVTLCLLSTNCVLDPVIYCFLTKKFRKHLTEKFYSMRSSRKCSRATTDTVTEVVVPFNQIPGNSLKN

Point of comparison: Cc1nc2ccccc2n1Cc1ccc(C(=O)N(C)C2CCCCC2)cc1, IC50 500 nM. Against it:
- O=C([C@@H]1CSC(c2cccnc2)N1)N1CCN(CCCc2ccccc2)CC1 (stereo partly drawn) — 220-fold lower, 2.3 nM
- CCOC[C@H](CC(C)C)NS(=O)(=O)c1ccc(Cn2c(C)nc3cnccc32)cc1 — 33000-fold lower, 0.015 nM
